Assay results reported in ChEMBL document CHEMBL1201862, “PubChem BioAssay data set” (2004).
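Interpolation was linear, between the two tested concentrations surrounding the appropriate level; five concentrations were tested over 48 hours in 96-well plates. GI50 is the concentration that inhibits growth by half.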 The source made the active and inactive calls. Rule as the data show it: active = GI50 up to about 1.1 µM and inactive = higher.

What was measured:
Assay in all cases: inhibition of tumour cell growth, NCI panel, 48 h
[1] = system: MCF7
[2] = system: SK-MEL-5
[3] = system: SNB-19
[4] = system: MDA-MB-231
[5] = system: SF-539
[6] = system: SN12C
[7] = system: PC-3
[8] = system: IGROV-1
[9] = system: EKVX
[10] = system: LOX IMVI
[11] = system: SK-OV-3
[12] = system: M14
[13] = system: NCI/ADR-RES
[14] = system: SK-MEL-28
[15] = system: UACC-62
[16] = system: K562
[17] = system: A549
[18] = system: SF-268
[19] = system: DU-145
[20] = system: Hs-578T
[21] = system: U-251
[22] = system: HOP-92
[23] = system: HL-60
[24] = system: BT-549
[25] = system: HOP-62
[26] = system: MDA-MB-435
[27] = system: CAKI-1
[28] = system: 786-0
[29] = system: TK-10
[30] = system: NCI-H226
[31] = system: T47D
[32] = system: A498
[33] = system: SNB-75
[34] = system: HCC 2998
[35] = system: NCI-H522
[36] = system: Malme-3M
[37] = system: HCT-116
[38] = system: SF-295
[39] = system: NCI-H460
[40] = system: UACC-257
[41] = system: OVCAR-4
[42] = system: MDA-N
[43] = system: CCRF-CEM
[44] = system: KM12
[45] = system: HT-29
[46] = system: NCI-H23
[47] = system: COLO 205
[48] = system: OVCAR-8
[49] = system: OVCAR-3
[50] = system: SW-620
[51] = system: HCT-15
[52] = system: SK-MEL-2
[53] = system: OVCAR-5
[54] = system: ACHN
[55] = system: UO-31
[56] = system: RXF 393
[57] = system: MOLT-4

In the case of CC(NNC(=O)c1ccncc1)c1ccc(F)cc1 (configuration not stated), the GI50 [1] is reported as > 100 µM (inactive), the GI50 [2] is reported as > 100 µM (inactive) and the GI50 [3] is reported as > 100 µM (inactive). For the same compound, the GI50 [4] was > 100 µM (inactive), the GI50 [5] was > 100 µM (inactive) and the GI50 [6] was > 100 µM (inactive). The GI50 [7] was > 100 µM (inactive), the GI50 [8] was > 100 µM (inactive) and the GI50 [9] was > 100 µM (inactive). For the same compound, the GI50 [10] was > 100 µM (inactive), the GI50 [11] was > 100 µM (inactive) and the GI50 [12] was 41.8 µM (inactive). The GI50 [13] was > 100 µM (inactive), the GI50 [14] was > 100 µM (inactive) and the GI50 [15] was > 100 µM (inactive). The GI50 [16] was > 100 µM (inactive), the GI50 [17] was > 100 µM (inactive) and the GI50 [18] was > 100 µM (inactive). For the same compound, the GI50 [19] was > 100 µM (inactive), the GI50 [20] was > 100 µM (inactive) and the GI50 [21] was > 100 µM (inactive). The GI50 [22] was > 100 µM (inactive), the GI50 [23] was 80 µM (inactive) and the GI50 [24] was > 100 µM (inactive). For the same compound, the GI50 [25] was > 100 µM (inactive), the GI50 [26] was > 100 µM (inactive) and the GI50 [27] was > 100 µM (inactive). The GI50 [28] was > 100 µM (inactive), the GI50 [29] was > 100 µM (inactive) and the GI50 [30] was > 100 µM (inactive). For the same compound, the GI50 [31] was > 100 µM (inactive), the GI50 [32] was > 100 µM (inactive) and the GI50 [33] was > 100 µM (inactive). The GI50 [34] was > 100 µM (inactive), the GI50 [35] was > 100 µM (inactive) and the GI50 [36] was > 100 µM (inactive). The GI50 [37] was > 100 µM (inactive), the GI50 [38] was > 100 µM (inactive) and the GI50 [39] was > 100 µM (inactive). For the same compound, the GI50 [40] was > 100 µM (inactive), the GI50 [41] was > 100 µM (inactive) and the GI50 [42] was > 100 µM (inactive). For the same compound, the GI50 [43] was > 100 µM (inactive), the GI50 [44] was > 100 µM (inactive) and the GI50 [45] was > 100 µM (inactive). For the same compound, the GI50 [46] was > 100 µM (inactive), the GI50 [47] was > 100 µM (inactive) and the GI50 [48] was > 100 µM (inactive). For the same compound, the GI50 [49] was > 100 µM (inactive), the GI50 [50] was > 100 µM (inactive) and the GI50 [51] was > 100 µM. The GI50 [52] was > 100 µM (inactive), the GI50 [53] was > 100 µM (inactive) and the GI50 [54] was > 100 µM (inactive). The GI50 [55] was > 100 µM (inactive), the GI50 [56] was > 100 µM (inactive) and the GI50 [57] was 6.65 µM (inactive).
